The target of experiment [1] is full-length human PTPN2 (TC45) (1-387) (Homo sapiens (Human), UniProt P17706). The experiment in a line: Enzymatic assay used to determine potency of PTPN2 inhibitors (full length PTPN2 DiFMUP assay). The format is biochemical. The note with it: 0.5 nM PTPN2, 100 μM DiFMUP, 30 min at room temperature. The method, then:
Compound activity was determined in an in vitro enzymatic assay using untagged, full-length human PTPN2 (TC45) (1-387) protein. PTPN2 was produced in E. coli as a GST-TEV fusion and the GST was removed by TEV digestion, followed by additional purification to yield full-length PTPN2 (SEQ ID 1). PTPN2 enzyme was diluted in assay buffer (50 mM HEPES pH7.5, 0.2 mM EDTA, 1 mM DTT, 0.02% Brij-35, 0.02% BSA) to a final concentration of 0.5 nM and added to black 384-well non-binding plates (Greiner, 781900). Compounds were subsequently added using a Tecan D300e dispenser. Following a 10 min incubation at room temperature, DiFMUP substrate (ThermoFisher, D22065) was added to a final concentration of 100 μM. Plates were transferred to a SpectraMax plate reader (Molecular Devices) and fluorescence intensity was measured (ex 358, em 455) after a 30 min incubation at room temperature. […] A four-parameter curve fit was used to determine IC50 values from % inhibition data.

Experiment [2] concerns murine B16F10 melanoma cell line. The experiment in a line: B16F10 IFNγ-induced cellular growth inhibition assay (xCELLigence RTCA). The class given is cell-based. The settings on record: B16F10 cells, 1 ng/mL mouse IFNγ, AUC of growth curve, read-out: B16 IFNγ Mediated Growth Inhibition Assay: AVG IC50. The method, then:
Compound activity was determined using an interferon gamma (IFNγ)-induced cellular growth inhibition assay with the murine B16F10 melanoma cell line on an Agilent xCELLigence Real-Time Cell Analysis platform (RTCA). RTCA E-Plate View 96 plates (Agilent, 300601010) were pre-equilibrated with 50 μL of assay media (DMEM+10% FBS, Gibco 10566-024, Gibco 10082-147) at 37° C. in a humidified incubator before taking an initial measurement of impedance (sweep). B16F10 cells cultured in assay media were dissociated with TrypLE Express (Gibco 12605-010) for five minutes at 37° C., diluted in 3 volumes of assay buffer, centrifuged for 5 minutes at 500×g at room temperature before diluting cells to 7,700 cells/mL in assay media, plating 130 μL/well (1,000 cells/well) in the inner 60 wells of the assay plate, and adding 150 μL of assay media to the outer wells of the plate. Cells were incubated at room temperature for 20 min to allow cells to settle before placing them in the xCELLigence reader and incubating overnight at 37° C., sweeping wells every 15 minutes. After 24 hours, well readings were paused, plates were removed from the incubator and compounds were added using a Tecan D300e dispenser. All wells were normalized to a final concentration of 0.5% DMSO. Following a 30 min incubation at 37° C., recombinant mouse IFNγ (R&D Systems™ 485MI100) was diluted to 10 ng/mL in assay media and 20 μL was added to assay wells (1 ng/mL final concentration). Assay plates were placed in the xCELLigence reader and swept every 15 minutes.

Where “and” joins values, the source holds several entries; their conditions need not be identical. Identical values can stand only once. Like-named read-outs stand apart in the source and are kept apart here. Some results are limits rather than exact numbers.

full-length human PTPN2 (TC45) (1-387), sequence (P17706 other isoform, or with tags, fused parts or gaps): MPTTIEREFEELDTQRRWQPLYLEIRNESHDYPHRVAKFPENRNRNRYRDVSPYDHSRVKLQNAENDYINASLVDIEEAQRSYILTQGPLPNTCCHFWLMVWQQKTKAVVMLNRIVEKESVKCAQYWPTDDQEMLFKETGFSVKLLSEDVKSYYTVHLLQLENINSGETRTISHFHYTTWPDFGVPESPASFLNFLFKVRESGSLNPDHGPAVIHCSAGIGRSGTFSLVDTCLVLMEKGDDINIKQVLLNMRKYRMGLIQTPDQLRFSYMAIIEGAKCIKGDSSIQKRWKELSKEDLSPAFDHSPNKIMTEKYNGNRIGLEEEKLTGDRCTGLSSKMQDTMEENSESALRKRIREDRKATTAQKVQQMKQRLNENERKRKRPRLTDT

Usually IC50 stands for the concentration that gives 50% inhibition. `O=C1CN(c2c(O)cc(C[C@H]3CCNC3)cc2F)S(=O)(=O)N1` (single isomer, unassigned) [Example 25]: in experiment [1], the IC50 was determined as 15 nM. The same measure, in the same setting: under `O=C1CN(c2c(O)cc(C[C@@H]3CCNC3)cc2F)S(=O)(=O)N1` (single isomer, unassigned) [Example 26] stands 8 nM. For the compound `O=C1CN(c2c(O)cc(C[C@H]3CCCNCC3)cc2F)S(=O)(=O)N1` (single isomer, unassigned) [Example 58], the IC50 was above 100000 nM in experiment [2] (Mus musculus, B16-F10, 48 h) and 51 nM in experiment [1]. The matching figures for `O=C1CN(c2c(O)cc(C[C@@H]3CCCNCC3)cc2F)S(=O)(=O)N1` (single isomer, unassigned) [Example 59]: above 47000 nM and 16 nM. For the compound `CC(C)CCN1CCCC[C@@H]1Cc1ccc(O)c(N2CC(=O)NS2(=O)=O)c1F` (single isomer, unassigned) [Example 81], the IC50 in experiment [2] (Mus musculus, B16-F10, 48 h) amounted to 363 nM; in experiment [1], 3 nM. The matching figures for `CC(C)CCN1CCCC[C@H]1Cc1ccc(O)c(N2CC(=O)NS2(=O)=O)c1F` (single isomer, unassigned) [Example 82]: 36300 nM and 76 nM. As to `CC(C)C[C@H]1CCN(CCc2cc(O)c(N3CC(=O)NS3(=O)=O)c(F)c2)C1` (single isomer, unassigned) [Example 119], the IC50 in experiment [2] (48 hours) is 1600 nM; in experiment [2] (Mus musculus, B16-F10, 48 h) it was 2430 nM; in experiment [1], 2 nM and 3 nM. Consider `O=C1CN(c2c(O)cc(CCN3CC[C@H](C(F)(F)F)C3)cc2F)S(=O)(=O)N1` (single isomer, unassigned) [Example 123], for which the IC50 in experiment [2] (Mus musculus, B16-F10, 48 h) came out at 1840 nM; in experiment [1], 2 nM. In turn, `CN1CCC(Cc2cc(O)c(N3CC(=O)NS3(=O)=O)c(F)c2)C1` (stereo not shown) [Example 1, 5-(2-fluoro-6-hydroxy-4-((1-methylpyrrolidin-3-yl)methyl)phenyl)-1,2,5-thiadiazolidin-3-one 1,1-dioxide] registered an IC50 in experiment [1] of 7 nM. Turning to `CC(C)N1CCC(Cc2cc(O)c(N3CC(=O)NS3(=O)=O)c(F)c2)C1` (stereo not shown) [Example 2], the IC50 came to 28200 nM in experiment [2] (Mus musculus, B16-F10, 48 h) and 14 nM in experiment [1]. As to `CN(C)CCN1CCC(Cc2cc(O)c(N3CC(=O)NS3(=O)=O)c(F)c2)C1` (stereo not shown) [Example 3], the IC50 in experiment [2] (Mus musculus, B16-F10, 48 h) is above 100000 nM; in experiment [1], 3 nM.

Take `O=C1CN(c2c(O)cc(CC3CCN(Cc4cnco4)C3)cc2F)S(=O)(=O)N1` (stereo not shown) [Example 4]: the IC50 is above 100000 nM in experiment [2] (Mus musculus, B16-F10, 48 h) and 14 nM in experiment [1].

Regarding `O=C1CN(c2c(O)cc(CC3CCN(CCN4CCCCC4)C3)cc2F)S(=O)(=O)N1` (stereo not shown) [Example 5], the IC50 came out at 84600 nM in experiment [2] (Mus musculus, B16-F10, 48 h) and 7 nM in experiment [1]. On the same counts, the results for `O=C1CN(c2c(O)cc(CC3CCN(Cc4ncco4)C3)cc2F)S(=O)(=O)N1` (stereo not shown) [Example 6] are above 100000 nM and 20 nM. Turning to `O=C1CN(c2c(O)cc(CC3CCN(Cc4ccco4)C3)cc2F)S(=O)(=O)N1` (stereo not shown) [Example 7], in experiment [2] (Mus musculus, B16-F10, 48 h), the IC50 was 2470 nM. On to `CCCCN1CCC(Cc2cc(O)c(N3CC(=O)NS3(=O)=O)c(F)c2)C1` (stereo not shown) [Example 8], for which the IC50 in experiment [2] (Mus musculus, B16-F10, 48 h) stood at 18600 nM; in experiment [1] it was 88 nM. The matching figures for `CC(C)CN1CCC(Cc2cc(O)c(N3CC(=O)NS3(=O)=O)c(F)c2)C1` (stereo not shown) [Example 9]: 13200 nM and 21 nM. With `O=C1CN(c2c(O)cc(CC3CCN(CC4CC4)C3)cc2F)S(=O)(=O)N1` (stereo not shown) [Example 10], the IC50 was found to be 17400 nM in experiment [2] (48 hours) and 50 nM in experiment [1].

Turning to `CCCN1CCC(Cc2cc(O)c(N3CC(=O)NS3(=O)=O)c(F)c2)C1` (stereo not shown) [Example 11], the IC50 in experiment [2] (Mus musculus, B16-F10, 48 h) was 5180 nM; in experiment [1] it was 18 nM. On the same counts, the results for `O=C1CN(c2c(O)cc(CC3CCN(Cc4ccoc4)C3)cc2F)S(=O)(=O)N1` (stereo not shown) [Example 12] are 4340 nM and 12 nM. For `CCCCCCN1CCC(Cc2cc(O)c(N3CC(=O)NS3(=O)=O)c(F)c2)C1` (stereo not shown) [Example 13], the IC50 turned out to be 36200 nM in experiment [2] (Mus musculus, B16-F10, 48 h) and 13 nM in experiment [1]. The matching figures for `O=C1CN(c2c(O)cc(CC3CCN(CC4CCCO4)C3)cc2F)S(=O)(=O)N1` (stereo not shown) [Example 14]: 52800 nM and 14 nM. On the same counts, the results for `O=C1CN(c2c(O)cc(CC3CCN(CC4CCOC4)C3)cc2F)S(=O)(=O)N1` (stereo not shown) [Example 15] are above 48000 nM and 24 nM.

With `O=C1CN(c2c(O)cc(CC3CCN(Cc4cocn4)C3)cc2F)S(=O)(=O)N1` (stereo not shown) [Example 16], the IC50 in experiment [2] (Mus musculus, B16-F10, 48 h) amounted to 35800 nM; in experiment [1], 16 nM. On the same counts, the results for `O=C1CN(c2c(O)cc(CC3CCN(Cc4ncc[nH]4)C3)cc2F)S(=O)(=O)N1` (stereo not shown) [Example 17] are above 52000 nM and 7 nM. On the same counts, the results for `O=C1CN(c2c(O)cc(CC3CCN(Cc4ccn[nH]4)C3)cc2F)S(=O)(=O)N1` (stereo not shown) [Example 18] are above 58000 nM and 7 nM. The matching figures for `CC(C)CCN1CCC(Cc2cc(O)c(N3CC(=O)NS3(=O)=O)c(F)c2)C1` (stereo not shown) [Example 19]: 8430 nM and 12 nM. For `CC(C)(C)CN1CCC(Cc2cc(O)c(N3CC(=O)NS3(=O)=O)c(F)c2)C1` (stereo not shown) [Example 20], the IC50 in experiment [2] (Mus musculus, B16-F10, 48 h) is 2620 nM; in experiment [1] it was 15 nM.

On to `O=C1CN(c2c(O)cc(CC3CCN(CC4CCCC4)C3)cc2F)S(=O)(=O)N1` (stereo not shown) [Example 21], for which the IC50 in experiment [2] (Mus musculus, B16-F10, 48 h) came out at 4590 nM; in experiment [1], 15 nM. In the case of `O=C1CN(c2c(O)cc(CC3CCCN(Cc4cocn4)C3)cc2F)S(=O)(=O)N1` (stereo not shown) [Example 47], in experiment [1], the IC50 is 98 nM. On the same count and under the same terms, the figure for `O=C1CN(c2c(O)cc(CC3CCCNCC3)cc2F)S(=O)(=O)N1` (stereo not shown) [Example 57] is 15 nM; for `O=C1CN(c2c(O)ccc(CC3CCCCN3)c2F)S(=O)(=O)N1` (stereo not shown) [Example 75] it is 20 nM. On to `CC(C)CCCN1CCCCC1Cc1ccc(O)c(N2CC(=O)NS2(=O)=O)c1F` (stereo not shown) [Example 79], for which the IC50 in experiment [2] (Mus musculus, B16-F10, 48 h) turned out to be 3450 nM.

Regarding `O=C1CN(c2c(O)ccc(CC3CCCCN3CCC3CCCC3)c2F)S(=O)(=O)N1` (stereo not shown) [Example 80], the IC50 in experiment [2] (Mus musculus, B16-F10, 48 h) amounted to 22700 nM. On the same count and under the same terms, the figure for `O=C1CN(c2c(O)cc(CCN3CCOCC3)cc2F)S(=O)(=O)N1` [Example 89] is 8910 nM. Same read-out and setting: under `O=C1CN(c2c(O)cc(CCN3CCCC(F)C3)cc2F)S(=O)(=O)N1` (stereo not shown) [Example 97] stands 1540 nM; under `COC1CCN(CCc2cc(O)c(N3CC(=O)NS3(=O)=O)c(F)c2)CC1` [Example 104], 723 nM; under `CC(C)(C)C1CCN(CCc2cc(O)c(N3CC(=O)NS3(=O)=O)c(F)c2)C1` (stereo not shown) [Example 111], 130 nM. Take `O=C1CN(c2c(O)cc(CCN3CCC4(CCCC4)C3)cc2F)S(=O)(=O)N1` [Example 112]: the IC50 in experiment [2] (Mus musculus, B16-F10, 48 h) came to 165 nM. Same read-out and setting: the figure for `O=C1CN(c2c(O)cc(CCN3CCC4(CCOCC4)C3)cc2F)S(=O)(=O)N1` [Example 113] is 216 nM; for `COC[C@@H]1CCN(CCc2cc(O)c(N3CC(=O)NS3(=O)=O)c(F)c2)C1` [Example 117] it is 331 nM.

With `CC(C)C[C@@H]1CCN(CCc2cc(O)c(N3CC(=O)NS3(=O)=O)c(F)c2)C1` [Example 120], the IC50 in experiment [2] (Mus musculus, B16-F10, 48 h) turned out to be 2640 nM. Consider `O=C1CN(c2c(O)cc(CCN3CC[C@@H](C(F)(F)F)C3)cc2F)S(=O)(=O)N1` [Example 122], for which the IC50 in experiment [2] (Mus musculus, B16-F10, 48 h) was 2670 nM. On the same count and under the same terms, the figure for `CC1(C)CN(CCc2cc(O)c(N3CC(=O)NS3(=O)=O)c(F)c2)C1` [Example 127] is 657 nM; for `O=C1CN(c2c(O)cc(CCN3Cc4ccccc4C3)cc2F)S(=O)(=O)N1` [Example 128] it is 610 nM. On the same count and under the same terms, the figure for `CC(C)[C@@H]1CCN(CCc2cc(O)c(N3CC(=O)NS3(=O)=O)c(F)c2)C1` [Example 134] is 516 nM; for `CC(C)[C@H]1CCN(CCc2cc(O)c(N3CC(=O)NS3(=O)=O)c(F)c2)C1` [Example 135] it is 290 nM; for `O=C1CN(c2c(O)cc(CCN3CC(F)C3)cc2F)S(=O)(=O)N1` [Example 136] it is 937 nM. Still for that read-out and setting: the figure for `O=C1CN(c2c(O)cc(CCN3CC(C(F)(F)F)C3)cc2F)S(=O)(=O)N1` [Example 137] is 2160 nM; for `CC1CN(CCc2cc(O)c(N3CC(=O)NS3(=O)=O)c(F)c2)C1` [Example 140] it is 472 nM.

The values are drawn from patent US20250257059A1, “PROTEIN TYROSINE PHOSPHATASE INHIBITORS AND USES THEREOF” (Nerio Therapeutics, Inc., priority 2022, published 2025).
